What all share (format): binding
In experiment [1] the target is T1, nNOS-PDZ/PSD-95-PDZ1-2 interaction (Homo sapiens, UniProt P29475).
T1 construct: nNOS-PDZ (12–130, human); PDZ1-2 (61-249); made in house; host or cells: E. coli
The experiment in a line: 'indirect' FP assay, Cnskr2 probe / PSD-95-PDZ1-2 / nNOS-PDZ. The text has this: First we tested a series of 23 fluorescent-labelled C-terminal peptide ligands (Supplementary Table S1) derived from PDZ-interacting proteins in order to find a probe with good activity towards the PSD-95 PDZ domains and no or little activity against nNOS-PDZ (Supplementary Fig. S1). The Cnskr2 probe fulfilled these selectivity criteria and was used to generate saturation curves with PDZ2 and PDZ1-2 of PSD-95 (Fig. 4a). […] Next, fixed concentrations of TAMRA-Cnskr2, PSD-95-PDZ2/1-2, and nNOS-PDZ were applied, corresponding to the conditions at IC50 of the nNOS-PDZ inhibition curve (Fig. 4b) where sensitivity of the assay is greatest. […] Here, we used the Sapk3-peptide as it has the desired high affinity to α1-Syntrophin-PDZ and low affinity to nNOS-PDZ (Supplementary Fig. S1).
The minor increases in mP at high concentrations, 260-2900 μM, were due to fluorescence artefacts.
Similar, this assay was established with Syntrophin-PDZ and Sapk3 as probe (Fig. 4d).
In all cases, the DMSO effect on the assay was tested and found negligible.

Another experiment addresses T2, PDZ3 of PSD-95 (Homo sapiens, UniProt P78352).
T2 construct: PDZ3 (309-401); made in house; host or cells: E. coli BL21-DE3 pLysS
The experiment in a line: FP inhibition assay, Cy5-CRIPT probe / PDZ3. The following applies: concentrations reaching 500–1800 μM; Cy5-CRIPT 50 nM; [PDZ3] = 5 μM. As for the experimental part:
Fluorescent probes were made by attaching fluorophores (Cy5) to C-terminal 10- or 11-mer (C10 or C11) peptide ligands representing canonical and natural occurring protein partners (Supplementary Table S1). […] (Fig. 2).
(b) Cy5-GluN2B as probe (50 nM), [PDZ2] = 6 μM. (c) Cy5-CRIPT as probe (50 nM), [PDZ3] = 5 μM. […] Error bars indicate SEM based on three individual measurements. […]
Incubation time was 10–15 minutes (room temperature), and the assay was performed in a 1 × TBS buffer (150 mM NaCl, 10 mM Tris, pH 7.4) using black flat-bottom 384-well plates (Corning Life Sciences, NY) and a Safire2 plate-reader (Tecan, Männedorf, Switzerland). […] TAMRA- and Cy5-probes were measured at excitation/emission values of 530/585 nm (bandwidth = 20 nm) and 635/670 nm (bandwidth = 15 nm), respectively. […]
FP values were fitted to the general equation: Y = Bottom + (Top–Bottom)/[1 + (10^(X-logIC50)*HillSlope)], where X is the logarithmic value of peptide/compound concentration, and Y is the experimental FP values. Competitive inhibition constants, Ki values, were calculated from the IC50 values to quantify affinities between test substance and protein[42]. […]

In the next experiment the target is PSD-95-PDZ2 (Homo sapiens, UniProt P78352). Nature of the experiment: ITC titration into PSD-95-PDZ2. More on the design: PSD-95-PDZ2 (157–249, human); made in house. The following applies: 100 μM protein in cell, 750 μM compound in syringe, 1% DMSO, pH 6.3, 25 °C. The text has this:
Unlike the FP experiments above, which rely on inhibition of interaction partners, the ITC method is a direct measure of binding, regardless of where it takes place on the protein.
Figure 5 ITC curves. Plots showing titrations into PDZ domains fitted to a one-site model.
For isothermal titration calorimetry (ITC) and NMR, PSD-95-PDZ2 (157–249, human) was expressed and purified as described previously. The sequence for the extended Mus musculus nNOS-PDZ (residues 12–134, Uniprot Q9JJ30) was sub-cloned into a pETM11 vector using cloning sites Nco1 and Kpn1, and the protein was expressed and purified following a similar protocol to that used for the production of PSD-95-PDZ2.
All ITC experiments were carried out at 25 °C on an iTC200 Microcalorimeter (GE Healthcare) with a 200 μL cell capacity and 40 μL syringe volume. The buffer used for all solutions was 20 mM phosphate buffer at pH 6.3; each experiment consisted of an initial injection of 0.5 μL, followed by fifteen 2.39 μL injections before a final injection of 1.89 μL. […] In both cases no heat exchange was detected, confirming that there was appropriate match of buffer conditions with no indication of dilution effects. […] For the nNOS-PDZ/PSD-95-PDZ2 interaction, 100 μM PDZ2 in the cell was titrated with 750 μM nNOS-PDZ. […] All data was analysed using the Origin®7 software programme.

T2 sequence (P78352 309-401): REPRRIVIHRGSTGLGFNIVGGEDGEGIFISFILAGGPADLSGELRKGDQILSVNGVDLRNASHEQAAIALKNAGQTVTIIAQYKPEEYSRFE
T1 sequence (P29475 12-130): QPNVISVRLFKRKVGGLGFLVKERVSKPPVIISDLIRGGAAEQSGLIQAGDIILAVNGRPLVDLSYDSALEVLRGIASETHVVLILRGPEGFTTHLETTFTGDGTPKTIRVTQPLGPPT
Sequence of PSD-95-PDZ2 (P78352 157-249): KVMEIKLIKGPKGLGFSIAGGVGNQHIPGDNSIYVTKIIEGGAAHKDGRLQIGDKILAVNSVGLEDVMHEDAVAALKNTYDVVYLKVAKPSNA

On to `Oc1c(Cl)cc(Cl)cc1CNc1ccc2[nH]nnc2c1` [IC87201, 2-((1H-Benzo[d][1–3]triazol-5-ylamino)methyl)-4-6-dichlorophenol], for which the “activity in indirect FP assay (nNOS-PDZ/PSD-95-PDZ1-2)” value in experiment [1] (up to 500–600 μM, Cy5-Cnskr2 5 nM / PSD-95-PDZ1-2 1 μM / nNOS-PDZ 5 μM) was “no activity”. Besides, at PDZ3 of PSD-95, the “inhibition of probe-PDZ interaction (PDZ3)” value was “did not inhibit”. Besides, the “binding to PSD-95-PDZ2 by ITC” value at PSD-95-PDZ2 is reported as “does not bind”.
On to `O=C(O)c1ccc(NCc2cc(Cl)cc(Cl)c2O)cc1O` [ZL006, 4-((3,5-Dichloro-2-hydroxybenzyl)amino)-2-hydroxybenzoic acid], for which the “rise in FP signal (inhibition of nNOS-PDZ/PSD-95-PDZ1-2)” value in experiment [1] (ZL006 0-2900 μM, TAMRA-Cnskr2 5 nM / PSD-95-PDZ1-2 1 μM / nNOS-PDZ 2.5 μM) is reported as “no rise in FP signal”. The “inhibition of probe-PDZ interaction (PDZ3)” value against PDZ3 of PSD-95 is on record as “did not inhibit”. The “binding to PSD-95-PDZ2 by ITC” value at PSD-95-PDZ2 was “binding was too weak to produce a binding isotherm”.

Source of the values: paper PMC4503980 (Scientific Reports, 2015).
